# Assay results taken from patent publication US20120302636A1, “METHOD OF TREATING A DISORDER ASSOCIATED WITH MTP” (priority 2009, published 2012).
# Key:
# Assay type in all cases: in vivo, human
# serum lipid levels = assay: Example 5: fixed-dose or escalating doses 12 weeks in hyperlipidemia, efficacy; settings: for LDL-C level decrease: dose escalation group
# Experimental: (§1) Fifty-two Japanese patients with hyperlipidemia (LDL-C between 140 and 220 mg/dL; TG≦400 mg/dL) participated in the study. […] One group received a fixed dose of 2 mg per tablet through the entire study. The other group received escalating doses of 0.5 mg (weeks 1-4), 1 mg (weeks 5-8), and 2 mg (weeks 9-12). For the efficacy analysis, 50 subjects were observed (25 in the fixed-dose group and 25 in the dose escalation group).
# (§2) The objective of this study was preliminary evaluation of the efficacy (based on serum lipid levels), safety, and pharmacokinetics of the compound of formula (I) administered orally twice daily after breakfast and supper for 12 weeks as a fixed dose (4 mg/day) or escalating dose (1 mg/day, 2 mg/day and 4 mg/day) regimen in patients with hyperlipidemia.
# [1] = Example 5: pharmacokinetics; settings: subjects other than two
# Experimental: as §1, §2
# [2] = Example 9: safety and tolerability
# Experimental: The study enrolled 16 obese male subjects (18-65 years of age (inclusive), with a body mass index (BMI) >30.0 kg/m^2 and <40.0 kg/m^2) who participated in two treatment periods. During Period 1, 8 subjects were randomized to receive 3.5 mg of the compound of formula (I), and 8 subjects were randomized to receive placebo. The compound of formula (I) or placebo was administered twice daily (BID), 30 minutes after the start of breakfast and dinner, for 10 days. All subjects were discharged from the clinic at the end of Period 1 for a 9±2 day discharge period. Subjects then returned for treatment during Period 2, in which (i) the group previously receiving the compound of formula (I) now received placebo, and (ii) the group previously receiving placebo now received the compound of formula (I), in accordance with the protocol described above.
compound,measurement,setting,value
"CCOC(=O)C(COC(=O)Cc1ccc(NC(=O)c2ccccc2-c2ccc(C(F)(F)F)cc2)c(C(=O)N(C)C)c1)(C(=O)OCC)c1ccccc1 [compound of formula (I), diethyl 2-((2-(3-(dimethylcarbamoyl)-4-(4′-(trifiuoromethyl)biphenyl-2-ylcarboxamido)phenyl)acetoxy)methyl)-2-phenyl malonate]",TG level,serum lipid levels; both groups,tended to increase
same,LDL-C level decrease,serum lipid levels; Week 10 (4 mg/day),−7.24%
same,LDL-C level decrease,serum lipid levels; Week 12 (4 mg/day),−7.12%
same,LDL-C level maximum decrease,"serum lipid levels; fixed-dose group (2 mg BID), Week 2",−6.38%
same,LDL-C level change,"serum lipid levels; fixed-dose group, after Week 2 through Week 12",−1.96 to −5.98%
same,Cmin of the compound of formula (I),[1],below the lower limit of quantization
same,deaths or serious adverse events,"[2]; 3.5 mg BID, 10 days",no deaths or serious adverse events
same,subjects with at least one treatment-emergent adverse event,"[2]; 3.5 mg BID, 10 days",53.3%
same,safety and tolerability,"[2]; 3.5 mg BID, 10 days, fed conditions",safe and well-tolerated
same,"hematology, biochemistry, urinalysis, vital sign (including weight), ECG changes from baseline",[2]; in vivo,No clinically meaningful mean changes
